Test results from patent publication US5626883A, “Ascorbic acid compositions providing enhanced human immune system activity” (priority 1994, dated 1997).

Assays:
glutathione = conditions: 500 mg/day; cited from earlier work
clinical [1] = conditions: human, plasma, 60 mg/kg
Protocol: Twenty-two healthy subjects were randomly selected for this example. The subjects ranged in age from 20 to 24 years, with a mean of 22 years. The subjects had not ingested any medications for at least two weeks before participation in the study.
Clearance and the uptake of ascorbic acid was measured in the plasma and mononuclear cell, respectively.
Briefly described, 5×10^6 cells were suspended in 0.2 ml of PBS, sonicated for 30 seconds, and 1 ml of 5% trichloroacetic acid (TCA) was added. The mixture was centrifuged to remove the precipitates and the supernatant was used to measure the level of ascorbic acid. From the mixture, 1.2 ml of this supernatant or 0.5 ml plasma was mixed with 0.4 ml of Dinitrophenyl-hydrazine-Thiourea-Copper (DCT) reagent, incubated at 37° C. for 3 hours, then transferred to an ice-water bath for 10 minutes. Then 2 ml of cold 12M H2 SO4 was added and the mixture was kept at room temperature for 20 min.

clinical [2] = conditions: human, in vivo, 60 mg/kg
Protocol: (§1) Lymphocytes were prepared from fresh heparinized peripheral venous blood by Ficoll-Hypaque density gradient centrifugation (Litton Bionetics, Rockville, Md.). Cells were washed three times with Hanks' balanced salt solution (HBSS), and resuspended to a concentration of 10×10^6 cells/ml in a complete medium (CM), that consisted of RPMI-1640 supplemented with 10% fetal calf serum and 1% antibiotics (100 U penicillin and 100 μg/ml streptomycin) and within an hour of isolation cells were used for different assays.

[3] = tested on: peripheral blood leukocyte (PBL); experiment: clinical; conditions: human, in vivo, 0 min
Protocol: as §1

[4] = tested on: skin tumors and estrogen-induced renal tumors; conditions: in vivo; cited from earlier work
K562 tumor target cells [5] = experiment: NK cell cytotoxic activity (4-hr 51Cr-release assay) before and after oral administration to healthy subjects, Example 1; assay type: in vivo, human
Protocol: This example compares the effect of ascorbic acid and the formulation of the present invention on NK cell activity, NK cell population, and peripheral blood leukocyte (PBL) uptake.
as §1
(§2) Chromium-release Assay for measuring NK cell activity:
(§3) A standard 4-hr ^51 Cr-release assay was employed. Briefly, 1×10^4 ^51 Cr-labelled K562 tumor target cells in
(§4) 0.1 ml CM were added to different wells of a microtiter plate. Effector cells were then pipetted into quadruplicate wells to give effector: target (E:T) ratios of 6:1, 12:1, 25:1 and 50:1. After a 4-hr incubation at 37° C., the microtiter plates were centrifuged at 1400 rpm for 5 min and 0.1 ml of supernatant from each well was collected and counted in a gamma counter. The percentages of isotope released were calculated by the following formula: [formula]
(§5) Total release was measured by adding […] Triton X-100 to designated wells. Lytic units (LU) were calculated from effector titration curves. One LU was defined as the number of effector cells required to achieve 20% lysis.
In FIG. 1A the NK cell activity is represented in lytic units (LU) on the vertical axis with time being represented in hours on the horizontal axis.
In FIG. 1B, the hollow bars represent the subject's NK cell activity before administration of either ascorbic acid alone or the formulation of the present invention.

NK cell population = NK cell population and sub-populations by flow cytometry, Example 1; assay type: in vivo, human; conditions: 0 and 24 hours post treatment; Anti-CD56 and Anti-CD3
Protocol: NK cell subset enumeration was carried out in ascorbate-treated and non-treated cell populations. A single laser flow cytometer (Epics Profile: Coulter Epics, Inc., Hialeah, Fla.), which discriminates forward and right-angle light scatter, as well as two colors, was used with an appropriate software package (Quad Stat: Coulter). Mononuclear cell populations were determined by two-color direct immunofluorescence, by using a whole-blood staining technique with the appropriate monoclonal antibody and flow cytometry. […]
lymphocyte markers, bit maps were set on the lymphocyte population of the forward-angle light scatter versus a 90° light scatter histogram. The percentage of positively stained cells for each marker pair, as well as the percentage of doubly stained cells, was determined. Estimates of the absolute numbers of lymphocyte positive for the respective surface markers were determined by multiplying peripheral lymphocyte cell count by the percentage of cells positive for each surface marker.
Total NK cell population and its sub-populations were also examined in this example. The total NK cell population and its sub-populations were determined both post-treatment with ascorbic acid alone and post-treatmentwith the formulation of the present invention by flow cytometry, using Anti-CD56 and Anti-CD3 monoclonal antibodies, respectively.

[6] = tested on: breast and gastric cancer; conditions: cited from earlier work
K562 tumor target cells [7] = experiment: NK cell activity with repeated administration every four hours, Example 2; assay type: in vivo, human; conditions: 15 mg/kg ascorbic acid or biologically equivalent amount every four hours, twenty-four hours
Protocol: as §2, §3, §4, §5

concentration at 1 h (clinical [1]): ~42000 ng/mL
concentration at 1 h (clinical [2]): 64 ng/mL
concentration at 2 h (clinical [2]): 101 ng/mL
concentration at 4 h (clinical [2]): 95 ng/mL
concentration at 8 h (clinical [2]): 79 ng/mL
concentration at 24 h (clinical [2]): 74 ng/mL
concentration at 48 h (clinical [2]): 49 ng/mL
mean (M±SD) uptake of ascorbic acid by 5×10^6 white blood cells [3]: 5.1 μg/dl
SMILES: O=C1O[C@H]([C@@H](O)CO)C(O)=C1O [ascorbic acid, 3-oxo-1-gulofuranolactone]
plasma concentrations of glutathione (glutathione): increases plasma concentrations of glutathione
tumor regression [4]: causes regression of skin tumors and estrogen-induced renal tumors in vivo
NK cell activity (K562 tumor target cells [5]; 60 mg/kg ascorbic acid, twenty-four hours post-administration, FIG. 1A): 90 LU
NK cell activity (K562 tumor target cells [5]; 60 mg/kg, forty-eight hours, FIG. 1A): declined to near pre-administration levels
NK cell activity change (K562 tumor target cells [5]; 60 mg/kg, one to two hours after administration, FIG. 1A): transitory decrease in NK cell activity
time of recovery of NK cell activity to pre-administration levels (K562 tumor target cells [5]; 60 mg/kg, post-administration, FIG. 1A): about four
period of inhibition of NK cell activity (K562 tumor target cells [5]; early transient phase, followed by enhancement): two to four
overall suppression of NK cell activity (summary) (K562 tumor target cells [5]; shortly after administration): transient suppression or inhibition of NK cell activity
suppression of NK cell activity (K562 tumor target cells [5]; zero to four hours post-administration, FIG. 1A): transient suppression of NK cell activity
percentages of total NK cell population, or its sub-populations (NK cell population): no significant effect
antitumor activity [6]: demonstrates antitumor activity against breast and gastric cancer
NK cell activity (K562 tumor target cells [7]): repeated suppression of NK cell activity
